Source: patent US5861476A, “Peptides and compounds that bind to the IL-1 receptor” (Affymax Technologies N.V., priority 1995, dated 1999)
pIC50: −log10 of the molar value. Where two headings read alike, the source gives them in different places. Where a SMILES comes first, the peptide text is derived from it. Where no end group is shown, it is not given here. [ ]: non-standard residue; d: D form. Bpa = N[C@@H](Cc1ccc(C(=O)c2ccccc2)cc1)C(=O)O; Aze = O=C(O)[C@@H]1CCN1; Sar = CNCC(=O)O

Biological target: T1, IL-1RtI (Homo sapiens, UniProt P14778)
T1 construct: made in house; host or cells: recombinant host cells (one form soluble from baculovirus transformed host cells; another PIG-tailed and cleaved from the cell surface)
T1 sequence (P14778 18-336): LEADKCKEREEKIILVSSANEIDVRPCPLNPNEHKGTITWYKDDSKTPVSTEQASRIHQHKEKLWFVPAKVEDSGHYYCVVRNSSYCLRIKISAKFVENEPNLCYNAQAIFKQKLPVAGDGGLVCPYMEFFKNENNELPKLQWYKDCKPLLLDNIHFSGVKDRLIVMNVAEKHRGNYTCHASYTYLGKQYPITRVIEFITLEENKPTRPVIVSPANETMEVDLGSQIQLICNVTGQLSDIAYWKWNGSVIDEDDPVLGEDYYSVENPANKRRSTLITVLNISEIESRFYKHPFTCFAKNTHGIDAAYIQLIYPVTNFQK
Assay: Inhibition of 125I-IL-1α binding to IL-1RtI (Example 3)
Procedure: This example provides the results of experiments conducted to determine an approximate IC50 for certain peptides of the invention. IC50 as used herein refers to the concentration of a compound which will inhibit 50% of the binding between a receptor and its ligand, e.g. IL-1RtI and IL-1. Stock solutions of each peptide were prepared. The appropriate amount of the peptide was dissolved in DMSO, and then nineteen volumes of binding buffer (RPMI 1640, 1% BSA, 20 mM HEPES, pH 7.2-7.3, and 0.1% sodium azide) were added to yield a 1 mM peptide, 5% DMSO stock solution.
One assay utilized a truncated IL-1RtI which had been immobilized on 96-well plates with an appropriate antibody, typically a non-blocking high affinity antibody. In other assays, cells expressing "full-length" IL-1RtI were used with results that yielded IC50 values about 5 to 10 fold lower than those determined using the truncated receptor. The cells were seeded onto Falcon 3072 96-well plates at about 10^5 cells per well, and the plates were incubated overnight at 37° C. in media containing serum. The following morning, the cells were checked to ensure that the cells were confluent and adhered to the bottom of the wells.
According to either assay protocol, the plates were then washed three times with binding buffer, and then 50 μl of binding buffer and 25 μl of a peptide solution (either the stock solution or a dilution thereof; each stock was subjected to five three fold dilutions) were added to each well. Then 25 μl of binding buffer containing ^125 I-IL-1α (final concentration of 90 pM) were added to each well to begin the assay. Each assay was carried out in duplicate. The plates were then incubated for two hours at 4° C. For peptides having particularly high affinities, the assay was run in 24 well plates allowing for higher levels of ligand (possible total volume of 2.5 ml instead of 100 μl in the 96 well plate), thereby minimizing the potential for ligand depletion.
After the two hour incubation, the wells were rinsed three times with ice cold PBS (a semi-automated cell harvesting device was used to conduct the rinse). The receptors or cells were then detached from the plates by adding 100 μl of 0.1N NaOH to each well and incubating the plates at room temperature for 20 minutes. After the 20 minute incubation, about 75 μl of the suspension was counted on a gamma counter, and the IC50 for each peptide was determined using computer assistance and the results of the gamma counting.

[1] = inhibition of 125I-IL-1α binding to IL-1RtI, soluble peptide unless marked *

| Molecule | pIC50 [1] | pIC50 |
| --- | --- | --- |
| DWFQPYSIQSDE [DWFQPYSIQSDE] | ≥ 4.00 |  |
| C[C@H](NC(=O)[C@@H]1CCCN1C(=O)[C@@H](NC(=O)[C@H](Cc1c[nH]c2ccccc12)NC(=O)[C@H](CCC(=O)O)NC(=O)[C@@H](N)Cc1ccccc1)[C@@H](C)O)C(=O)N[C@@H](Cc1ccc(O)cc1)C(=O)N[C@@H](Cc1c[nH]c2ccccc12)C(=O)N[C@@H](CCC(N)=O)C(=O)N1CC[C@H]1C(=O)N[C@@H](Cc1ccc(O)cc1)C(N)=O [FEWTPAYWQJY--NH2] (H-FEWTPAYWQ[Aze]Y-NH2) | ≥ 6.30 |  |
| VWYWEQPYALPL [VWYWEQ PYALPL] | ≥ 4.00 |  |
| NMVYWQPYSIQT [Peptide 3H7, NMVYWQPYSIQT] | ≥ 4.00 |  |
| SYDWEQPYALPL [SYDWEQ PYALPL] | ≥ 4.00 |  |
| WGEWLQPYALPL [WGEWLQ PYALPL] | ≥ 4.00 |  |
| RLVYWQPYSVQT [Peptide 3H2, RLVYWQPYSVQT] | ≥ 4.00 |  |
| QIDNTAWYERFLLQYNA [QIDNTAWYERFLLQYNA] |  | > 6.30 |
| WGNWWQPYSVHR [WGNWWQPYSVHR] | < 4.00 |  |
| SWTDYGYWQPYALPISGL [SWTDYG YWQPYA LPISGL] | ≥ 6.30 |  |
| YFQPYALPF [YFQPYALPF] | < 4.00 |  |
| SHLYWQPYSVQ [Peptide 2H2, SHLYWQPYSVQ] | ≥ 4.00 |  |
| FYEWWQPYALPL [FYEWWQ PYALPL] | ≥ 4.00 |  |
| C[C@H](NC(=O)[C@@H](N)Cc1ccccc1)C(=O)N[C@@H](Cc1c[nH]c2ccccc12)C(=O)N[C@H](C(=O)N1CCC[C@H]1C(=O)NCC(=O)N[C@@H](Cc1ccc(O)cc1)C(=O)N[C@@H](Cc1c[nH]c2ccccc12)C(=O)N[C@@H](CCC(N)=O)C(=O)N1CC[C@H]1C(=O)N[C@@H](Cc1ccc(O)cc1)C(N)=O)[C@@H](C)O [FAWTPGYWQJY--NH2] (H-FAWTPGYWQ[Aze]Y-NH2) | ≥ 6.30 |  |
| C[C@@H](O)[C@H](NC(=O)[C@H](Cc1c[nH]c2ccccc12)NC(=O)[C@H](CCC(=O)O)NC(=O)[C@@H](N)Cc1ccccc1)C(=O)N1CCC[C@H]1C(=O)NCC(=O)N[C@@H](Cc1c[nH]c2ccccc12)C(=O)N[C@@H](Cc1ccc(O)cc1)C(=O)N[C@@H](CCC(N)=O)C(=O)N1CC[C@H]1C(=O)N[C@@H](Cc1ccc(O)cc1)C(N)=O [FEWTPGWYQJY--NH2] (H-FEWTPGWYQ[Aze]Y-NH2) | ≥ 6.30 |  |
| YWYQPYALGL [YWYQPYALGL] | ≥ 4.00 |  |
| CC(=O)N[C@@H](Cc1ccccc1)C(=O)N[C@@H](CCC(=O)O)C(=O)N[C@@H](Cc1c[nH]c2ccccc12)C(=O)N[C@H](C(=O)N1CCC[C@H]1C(=O)NCC(=O)N[C@@H](Cc1ccc(O)cc1)C(=O)N[C@@H](Cc1ccc(C(=O)c2ccccc2)cc1)C(=O)N[C@@H](CCC(N)=O)C(=O)N1CC[C@H]1C(=O)N[C@@H](Cc1ccc(O)cc1)C(N)=O)[C@@H](C)O [AcFEWTPGY--Bpa--QJY--NH2] (Ac-FEWTPGY[Bpa]Q[Aze]Y-NH2) | ≥ 6.30 |  |
| C[C@@H](O)[C@H](NC(=O)[C@H](Cc1c[nH]c2ccccc12)NC(=O)[C@H](CCC(=O)O)NC(=O)[C@@H](N)Cc1ccccc1)C(=O)N1CCC[C@H]1C(=O)NCC(=O)N[C@@H](Cc1ccc(O)cc1)C(=O)N[C@@H](Cc1ccc(O)cc1)C(=O)N[C@@H](CCC(N)=O)C(=O)N1CC[C@H]1C(=O)N[C@@H](Cc1ccc(C(=O)c2ccccc2)cc1)C(N)=O [FEWTPGYYQJ--Bpa--NH2] (H-FEWTPGYYQ[Aze][Bpa]-NH2) | ≥ 4.00 |  |

| Molecule | pIC50 [1] | pIC50 |
| --- | --- | --- |
| EWTPGYWQPY-NH2 [EWTPGYWQPY--NH2] | ≥ 4.00 |  |
| RFMYWQPYSVQR [RFMYWQPYSVQR] | ≥ 4.00 |  |
| GVVWYQPYALPL [GVVWYQ PYALPL] | < 4.00 |  |
| C[C@@H](O)[C@H](NC(=O)[C@H](Cc1c[nH]c2ccccc12)NC(=O)[C@H](CCC(=O)O)NC(=O)[C@@H](N)Cc1ccccc1)C(=O)NCC(=O)NCC(=O)N[C@@H](Cc1ccc(O)cc1)C(=O)N[C@@H](Cc1c[nH]c2ccccc12)C(=O)N[C@@H](CCC(N)=O)C(=O)N1CC[C@H]1C(=O)N[C@@H](Cc1ccc(O)cc1)C(N)=O [FEWTGGYWQJY--NH2] (H-FEWTGGYWQ[Aze]Y-NH2) | ≥ 4.00 |  |
| CC(=O)N[C@@H](Cc1ccccc1)C(=O)N[C@@H](CCC(=O)O)C(=O)N[C@@H](Cc1ccc(C(=O)c2ccccc2)cc1)C(=O)N[C@H](C(=O)N1CCC[C@H]1C(=O)NCC(=O)N[C@@H](Cc1ccc(O)cc1)C(=O)N[C@@H](Cc1ccc(O)cc1)C(=O)N[C@@H](CCC(N)=O)C(=O)N1CC[C@H]1C(=O)N[C@@H](Cc1ccc(O)cc1)C(N)=O)[C@@H](C)O [AcFE--Bpa--TPGYYQJY--NH2] (Ac-FE[Bpa]TPGYYQ[Aze]Y-NH2) | ≥ 4.00 |  |
| AHTWWQPYALPL [AHTWWQ PYALPL] | ≥ 4.00 |  |
| YWYQPYALPL [YWYQPYALPL] | ≥ 4.00 |  |
| CC(C)[C@H](NC(=O)[C@@H](NC(=O)[C@H](Cc1c[nH]c2ccccc12)NC(=O)[C@H](CCC(=O)O)NC(=O)[C@@H](N)Cc1ccccc1)[C@@H](C)O)C(=O)N1CCC[C@H]1C(=O)N[C@@H](Cc1ccc(O)cc1)C(=O)N[C@@H](Cc1c[nH]c2ccccc12)C(=O)N[C@@H](CCC(N)=O)C(=O)N1CC[C@H]1C(=O)N[C@@H](Cc1ccc(O)cc1)C(N)=O [FEWTVPYWQJY--NH2] (H-FEWTVPYWQ[Aze]Y-NH2) | ≥ 4.00 |  |
| RWWQPYATPL [RWWQPYATPL] | ≥ 4.00 |  |
| FTWEESNAYYWQPY-NH2 [FTWEESNAYYWQPY-NH2] |  | > 6.30 |
| C[C@@H](O)[C@H](NC(=O)[C@H](Cc1c[nH]c2ccccc12)NC(=O)[C@H](CCC(=O)O)NC(=O)[C@@H](N)Cc1ccccc1)C(=O)N(C)CC(=O)NCC(=O)N[C@@H](Cc1ccc(O)cc1)C(=O)N[C@@H](Cc1c[nH]c2ccccc12)C(=O)N[C@@H](CCC(N)=O)C(=O)N1CC[C@H]1C(=O)N[C@@H](Cc1ccc(O)cc1)C(N)=O [FEWTSarGYWQJY--NH2] (H-FEWT[Sar]GYWQ[Aze]Y-NH2) | ≥ 6.30 |  |
| SRVWFQPYSLQS [3H1, 6, 12, SRVWFQPYSLQS] | ≥ 4.00 |  |
| RFDYWQPYSDQT [RFDYWQPYSDQT] | ≥ 4.00 |  |
| GWYQPYALGF [GWYQPYALGF] | ≥ 4.00 |  |
| C[C@@H](O)[C@H](NC(=O)[C@H](Cc1c[nH]c2ccccc12)NC(=O)[C@H](CCC(=O)O)NC(=O)[C@@H](N)Cc1ccccc1)C(=O)N1CCC[C@H]1C(=O)NCC(=O)N[C@@H](Cc1ccc(O)cc1)C(=O)N[C@@H](Cc1ccc(C(=O)c2ccccc2)cc1)C(=O)N[C@@H](CCC(N)=O)C(=O)N1CC[C@H]1C(=O)N[C@@H](Cc1ccc(O)cc1)C(N)=O [FEWTPGY--Bpa--QJY--NH2] (H-FEWTPGY[Bpa]Q[Aze]Y-NH2) | ≥ 6.30 |  |
| NSYFWQPYALPL [NSYFWQ PYALPL] | ≥ 4.00 |  |
| C[C@@H](O)[C@H](NC(=O)[C@H](Cc1c[nH]c2ccccc12)NC(=O)[C@H](CCC(=O)O)NC(=O)[C@@H](N)Cc1ccccc1)C(=O)N1CCC[C@H]1C(=O)N[C@H](CO)C(=O)N[C@@H](Cc1ccc(O)cc1)C(=O)N[C@@H](Cc1ccc(O)cc1)C(=O)N[C@@H](CCC(N)=O)C(=O)N1CC[C@H]1C(=O)N[C@@H](Cc1ccc(O)cc1)C(N)=O [FEWTPsYYQJY-NH2] (H-FEWTP[dS]YYQ[Aze]Y-NH2) |  | > 6.30 |
| WLAWEQPYALPL [WLAWEQ PYALPL] | ≥ 4.00 |  |
